Assay results reported in ChEMBL document CHEMBL1250451, “Mechanistic insights into a Ca2+-dependent family of alpha-mannosidases in a human gut symbiont” (Nat Chem Biol, 2010).

What was measured:
Assay type in all cases: protein assay
[1] = target: T1, Alpha-1,2-mannosidase (BT_2199) (Bacteroides thetaiotaomicron) (UniProt Q8A5N9); assay: Activity of Bacteroides thetaiotaomicron GH92 alpha-mannosidase 2199 assessed as recovery of enzyme activity at 1 mM in presence of 7 mM Mn(2+) ions and in presence of 5 mM EDTA in 100 mM pH 7 MOPS buffer relative to enzyme activity in presence of calcium
T1 sequence (whole entry): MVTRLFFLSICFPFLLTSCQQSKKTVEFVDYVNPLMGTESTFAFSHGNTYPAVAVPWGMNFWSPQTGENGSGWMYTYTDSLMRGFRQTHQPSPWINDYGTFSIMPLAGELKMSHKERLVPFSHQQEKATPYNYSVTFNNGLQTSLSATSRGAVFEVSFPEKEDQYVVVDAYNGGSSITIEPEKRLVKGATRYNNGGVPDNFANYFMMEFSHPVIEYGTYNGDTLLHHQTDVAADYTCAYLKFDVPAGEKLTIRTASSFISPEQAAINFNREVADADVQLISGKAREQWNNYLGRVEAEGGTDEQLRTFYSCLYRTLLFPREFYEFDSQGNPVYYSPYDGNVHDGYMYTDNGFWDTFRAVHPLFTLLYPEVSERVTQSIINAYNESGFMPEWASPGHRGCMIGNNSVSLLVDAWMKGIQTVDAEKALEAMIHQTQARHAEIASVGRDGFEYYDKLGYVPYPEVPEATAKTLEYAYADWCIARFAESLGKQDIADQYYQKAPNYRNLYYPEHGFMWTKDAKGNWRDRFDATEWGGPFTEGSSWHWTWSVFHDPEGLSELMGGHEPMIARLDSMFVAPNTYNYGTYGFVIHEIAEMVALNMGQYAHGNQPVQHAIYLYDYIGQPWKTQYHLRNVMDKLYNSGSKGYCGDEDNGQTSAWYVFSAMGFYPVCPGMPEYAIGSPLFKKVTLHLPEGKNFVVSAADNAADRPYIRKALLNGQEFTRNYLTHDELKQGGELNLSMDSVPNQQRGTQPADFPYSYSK

[2] = target: T1, Alpha-1,2-mannosidase (BT_2199) (Bacteroides thetaiotaomicron); assay: Activity of Bacteroides thetaiotaomicron GH92 alpha-mannosidase 2199 assessed as recovery of enzyme activity at 1 mM in presence of 7 mM Ba(2+) ions and in presence of 5 mM EDTA in 100 mM pH 7 MOPS buffer relative to enzyme activity in presence of calcium
[3] = target: T1, Alpha-1,2-mannosidase (BT_2199) (Bacteroides thetaiotaomicron); assay: Activity of Bacteroides thetaiotaomicron GH92 alpha-mannosidase 2199 assessed as recovery of enzyme activity at 1 mM in presence of 7 mM Ti(3+) ions and in presence of 5 mM EDTA in 100 mM pH 7 MOPS buffer relative to enzyme activity in presence of calcium
[4] = target: T1, Alpha-1,2-mannosidase (BT_2199) (Bacteroides thetaiotaomicron); assay: Activity of Bacteroides thetaiotaomicron GH92 alpha-mannosidase 2199 assessed as recovery of enzyme activity at 1 mM in presence of 7 mM V(3+) ions and in presence of 5 mM EDTA in 100 mM pH 7 MOPS buffer relative to enzyme activity in presence of calcium
[5] = target: T1, Alpha-1,2-mannosidase (BT_2199) (Bacteroides thetaiotaomicron); assay: Activity of Bacteroides thetaiotaomicron GH92 alpha-mannosidase 2199 assessed as recovery of enzyme activity at 1 mM in absence of metal and in presence of 5 mM EGTA in 100 mM pH 7 MOPS buffer relative to enzyme activity in presence of calcium
[6] = target: T1, Alpha-1,2-mannosidase (BT_2199) (Bacteroides thetaiotaomicron); assay: Activity of Bacteroides thetaiotaomicron GH92 alpha-mannosidase 2199 assessed as recovery of enzyme activity at 1 mM in presence of 7 mM Mg(2+) ions and in presence of 5 mM EGTA in 100 mM pH 7 MOPS buffer relative to enzyme activity in presence of calcium
[7] = target: T2, Alpha-1,2-mannosidase (BT_3990) (Bacteroides thetaiotaomicron) (UniProt Q8A0N1); assay: Activity of Bacteroides thetaiotaomicron GH92 alpha-mannosidase 3990 assessed as recovery of enzyme activity at 1 mM in absence of metal and in presence of 5 mM EDTA in 100 mM pH 7 MOPS buffer relative to enzyme activity in presence of calcium
T2 sequence (whole entry): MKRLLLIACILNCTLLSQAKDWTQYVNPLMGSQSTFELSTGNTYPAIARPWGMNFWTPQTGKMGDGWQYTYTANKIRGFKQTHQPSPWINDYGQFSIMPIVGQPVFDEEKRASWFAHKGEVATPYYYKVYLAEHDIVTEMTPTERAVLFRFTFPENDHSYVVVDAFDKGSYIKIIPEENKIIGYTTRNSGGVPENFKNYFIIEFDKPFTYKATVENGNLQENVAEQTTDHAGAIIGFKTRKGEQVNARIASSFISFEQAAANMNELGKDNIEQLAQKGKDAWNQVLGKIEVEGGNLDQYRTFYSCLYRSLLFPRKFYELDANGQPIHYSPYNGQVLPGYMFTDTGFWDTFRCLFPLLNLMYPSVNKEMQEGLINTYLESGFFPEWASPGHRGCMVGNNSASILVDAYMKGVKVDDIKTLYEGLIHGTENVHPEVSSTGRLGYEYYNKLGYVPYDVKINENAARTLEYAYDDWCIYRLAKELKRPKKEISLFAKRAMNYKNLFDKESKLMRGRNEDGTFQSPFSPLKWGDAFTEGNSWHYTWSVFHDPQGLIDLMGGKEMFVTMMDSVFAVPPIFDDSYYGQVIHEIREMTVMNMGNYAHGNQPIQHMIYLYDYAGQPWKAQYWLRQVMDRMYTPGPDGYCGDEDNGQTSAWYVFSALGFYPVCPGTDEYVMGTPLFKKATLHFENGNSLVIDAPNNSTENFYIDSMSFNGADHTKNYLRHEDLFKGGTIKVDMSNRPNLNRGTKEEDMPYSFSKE

[8] = target: T2, Alpha-1,2-mannosidase (BT_3990) (Bacteroides thetaiotaomicron); assay: Activity of Bacteroides thetaiotaomicron GH92 alpha-mannosidase 3990 assessed as recovery of enzyme activity at 1 mM in presence of 7 mM Sr(2+) ions and in presence of 5 mM EDTA in 100 mM pH 7 MOPS buffer relative to enzyme activity in presence of calcium
[9] = target: T2, Alpha-1,2-mannosidase (BT_3990) (Bacteroides thetaiotaomicron); assay: Activity of Bacteroides thetaiotaomicron GH92 alpha-mannosidase 3990 assessed as recovery of enzyme activity at 1 mM in presence of 7 mM Sc(3+) ions and in presence of 5 mM EDTA in 100 mM pH 7 MOPS buffer relative to enzyme activity in presence of calcium
[10] = target: T2, Alpha-1,2-mannosidase (BT_3990) (Bacteroides thetaiotaomicron); assay: Activity of Bacteroides thetaiotaomicron GH92 alpha-mannosidase 3990 assessed as recovery of enzyme activity at 1 mM in presence of 7 mM Mg(2+) ions and in presence of 5 mM EGTA in 100 mM pH 7 MOPS buffer relative to enzyme activity in presence of calcium
[11] = target: T2, Alpha-1,2-mannosidase (BT_3990) (Bacteroides thetaiotaomicron); assay: Activity of Bacteroides thetaiotaomicron GH92 alpha-mannosidase 3990 assessed as recovery of enzyme activity at 1 mM in presence of 7 mM Ba(2+) ions and in presence of 5 mM EGTA in 100 mM pH 7 MOPS buffer relative to enzyme activity in presence of calcium
[12] = target: T2, Alpha-1,2-mannosidase (BT_3990) (Bacteroides thetaiotaomicron); assay: Activity of Bacteroides thetaiotaomicron GH92 alpha-mannosidase 3990 assessed as recovery of enzyme activity at 1 mM in presence of 7 mM Sr(2+) ions and in presence of 5 mM EGTA in 100 mM pH 7 MOPS buffer relative to enzyme activity in presence of calcium

Measured: Activity

O=[N+]([O-])c1ccc(O[C@H]2O[C@H](CO)[C@@H](O)[C@H](O)[C@@H]2O)cc1
14%: [8]
8%: [1]
12%: [12]
0%: all other assays above
